Test results as given in patent US20230331792A1, “NEW MULTI-FUNCTIONAL OLIGOPEPTIDES” (ENLITISA (SHANGHAI) PHARMACEUTICAL CO., LTD., priority 2019, published 2023).
Square brackets hold non-standard residues; d marks the D form. Ends that are not written are not given here. Dopa = N[C@@H](Cc1ccc(O)c(O)c1)C(=O)O; Hyp = O=C(O)[C@@H]1C[C@@H](O)CN1

Experiments:
C57BL/6 mice [1] = experiment: Air pouch model (carrageenan-induced acute inflammation); type: in vivo; parameters: key to Inflammation score / Edema score: 1 = mild, 2 = moderate, 3 = severe
Experimental: Healthy adult male C57BL/6 mice weighing between 20 and 30 g were supplied by Changzhou Cvens Experimental Animal Co. Ltd. Prior to any experiments being conducted, the mice were housed under standardized conditions (at a constant temperature or 22±2° C., with alternating 12-hour periods of light and darkness), and were fed on a standard mouse diet with water, for about a week. The mice were randomly divided into 9 groups as described in Table 4, with 7 mice in each group.
General anaesthesia was induced using intraperitoneal delivery of 3% chloral hydrate (Sinopharm Chemical Reagent Co., Ltd., Shanghai, China); 1 mL/10 g of body weight). The hair of the entire dorsum was shaved and depilated one day before sterile air injection.
Air pouches were produced by subcutaneous injection of sterile air (5 mL) into the intrascapular area of the mice. After three days, another injection of air (3 mL) was performed to maintain the pouches. In order to induce acute inflammation, three days after the second injection, animals received an injection of sterile carrageenan solution (CP Kelco, Taixing, Jiangsu Province, China; 1%, 0.5 mL; produced by adding 0.1 g of carrageenan powder into a beaker containing 10 mL of 0.9% saline solution and stirring). Mice were pre-treated with test samples or vehicle 1 hour before and 23 hours after the carrageenan injection into the subcutaneous air pouch. Animals were sacrificed 24 hours after the carrageenan injection.
Skin biopsies were taken from the air pouches. A part of the biopsy was fixed in formalin (produced by adding ultra-pure water to 50 mL of a 40% formaldehyde solution (Nanchang Rain Dew Experimental Equipment Co., Ltd., Nanchang, […] Provence, China) up to a total volume of 500 mL) and analyzed by histological embedding in paraffin wax, sectioning and staining.
The histological specimens were analyzed, and an inflammation score and an edema score were estimated. The inflammation scores were estimated by observing heamatoxylin and eosin (HE) stained slices under an optical microscope. Scores (between 1 to 3 points) were given according to the perceived inflammation level (e.g. in cases where only a small amount of inflammatory cells scattered in the area: 1 point was given (mild); in cases where many inflammatory cells were observed: 2 points were given (moderate); and, in cases with diffuse infiltration: 3 points were given (severe)). A similar scoring system was employed for edema levels (3 points for most severe and 1 point for mild) after overall observation.
After conducting some preliminary experiments to validate the model, an experiment was conducted in which mice were treated by administering test samples or vehicle in accordance with Table 4 below. Compound A and Compound B were dissolved in saline at concentrations indicated in Table 4 below (L=low dose, M=medium dose, H=high dose).
Compound A and Compound B were synthesized as described in Examples 8 and 7 above, respectively. The peptide powders were stored at −20° C. prior to use. Dexamethasone (Dex) was obtained from Shanghai Aladdin Bio-Chem Technology Co., Ltd., Shanghai, China.

patient [2] = experiment: Radiation stomatitis, patient case; type: in vivo, human; conditions: 0.5 mg/mL solution as mouthwash
Experimental: A patient was diagnosed with oral cancer and underwent radiation therapy.
After 3 weeks, oral mucositis developed with ulcers on the mucous membrane lining the mouth, throat and esophagus. It was very painful and the patient was not able to eat.
The patient then used Compound B solution (0.5 mg/mL; prepared as described in Example 38 above) as a mouthwash, as frequently as needed.

person one = experiment: Pain and bleeding after an operation, patient case; type: in vivo, human
Experimental: Immediately after the operation, they used 0.5 mg/mL of Compound B spray (as described in Example 38 but packed into a normal spray bottle) to apply directly on the wound. The right pane in FIG. 10 was taken 1 hour after operation. […] The physician said that it would normally take a patient at least ten days to fully recover from such a procedure with standard care.

patient [3] = experiment: Radiation injury in the nasal cavity, patient case; type: in vivo, human
Experimental: A patient was diagnosed with paranasal sinus cancer and received radiation therapy. After two weeks treatment, they had inflammation of the nose and sinuses and felt like their nose was blocked or stuffy. The mucus in the nasal cavity and paranasal sinuses became thick and dry.
The patient used a nasal spray comprising Compound B (see Example 7 above) dissolved in water at a concentration of 0.5 mg/mL and then packed into a nasal spray bottle, once every two hours during daytime.

C57BL/6 mice [4] = experiment: Acute wound model (full-thickness skin wound); type: in vivo; conditions: topical 50 μL/wound once daily Day 0 to Day 7; 1.65, 16.45, 164.5 μg/wound/day
Experimental: 6-8 weeks old male C57BL/6 mice were supplied by Changzhou Cvens Experimental Animal Co. Ltd. (Changzhou, Jiangsu Province, China). Prior to any experiments being conducted, mice were housed under standardized conditions at a constant temperature of 22±2° C., with alternating 12-hour periods of light and darkness, and were fed on a standard mouse diet with water, for about a week.
General anesthesia was induced using intraperitoneal administration of 3% chloral hydrate (1 mL/10 g of body weight). The hair on the back was shaved by a baby hair shaver and depilated with cream. The skin area was wiped and sterilized with 75% alcohol twice.
A 12 mm EMS skin biopsy punch (Electron Microscopy Sciences, P.O. Box 550, 1560 Industry Road, Hatfield, PA 19440) was used to make two round wounds on the midline of the back. The two wounds were tangential and the skin between the circles was cut along the upper and lower tangents. Scissors were used to trim the wound. The full thickness of skin was removed to reach the fascia. The wound was oval shape and was left open without suture. […]
Photographs were taken of each wound every other day from Day 0. Photos were scanned into a computer, and wound areas calculated using ImageJ image analysis software (National Institute of Health).
The unhealed wound area was expressed as a percentage of the original wound area: […]

[5] = 0.5 mg/mL spray directly on the wound, 1 hour after operation

| Substance | Edema score (C57BL/6 mice [1]; low dose 50 μg/mouse) | Inflammation score (C57BL/6 mice [1]; low dose 50 μg/mouse) | Sum of the scores (C57BL/6 mice [1]; low dose 50 μg/mouse) | Edema score (C57BL/6 mice [1]; medium dose 250 μg/mouse) | Inflammation score (C57BL/6 mice [1]; medium dose 250 μg/mouse) | Sum of the scores (C57BL/6 mice [1]; medium dose 250 μg/mouse) | course of stomatitis during continued therapy (patient [2]) | duration of pain relief (patient [2]) | pain of oral mucositis (patient [2]; almost immediately after application) | bleeding of operative wound (person one; [5]) | pain of operative wound (person one; [5]) | wound recovery (person one; 0.5 mg/mL spray, one week later (standard care: at least ten days)) | blocked or stuffy nose (patient [3]; nasal spray 0.5 mg/mL once every two hours during daytime, three days later) | nasal discomfort during continued radiation therapy (patient [3]; nasal spray 0.5 mg/mL, continuous use) | unhealed wound rate / wound healing (FIG. 1) (C57BL/6 mice [4]) |
| --- | --- | --- | --- | --- | --- | --- | --- | --- | --- | --- | --- | --- | --- | --- | --- |
| {[(Ala-Lys-Pro-Ser-Tyr-Hyp-Hyp-Thr-DOPA-Lys)2-Lys]2-Lys}2-Lys (AKPSY[Hyp][Hyp]T[Dopa]KKKK; also: branched lysine dendrimer {[(peptide)2-Lys]2-Lys}2-Lys) [Compound B] | 2.00 | 1.83 | 3.83 | 2.14 | 1.80 | 3.94 | stomatitis did not worsen | one or two hours | pain was very much reduced | bleeding had stopped | only slight pain was felt | the wound was fully recovered | nose became clear and was no longer stuffy | nasal discomfort did not worsen | significantly improve wound healing |
| {[(Dopa-Ala-Lys-Pro-Ser-Tyr-Hyp-Hyp-Thr-Tyr-Lys)2-Lys]2-Lys}2-Lys ([Dopa]AKPSY[Hyp][Hyp]TYKKKK; also: branched lysine dendrimer {[(peptide)2-Lys]2-Lys}2-Lys) [Compound A] | 1.71 | 1.86 | 3.57 | 1.57 | 1.57 | 3.14 |  |  |  |  |  |  |  |  | significantly improve wound healing |
